Several values for one entry are separate records, joined by “and”; a condition that tells them apart may be missing. Equal values may be shown once.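 Compound exposure: 48 hours, 5 concentrations, 96-well plates. Abbreviation: GI50, concentration required for 50% inhibition of growth. TGI denotes the concentration required for complete inhibition of growth.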
Experiments:
Assay in all cases: NCI anticancer screen, dose series, 48 h
A498 renal = tested on: A498 renal
K-562 leukemia = tested on: K-562 leukemia
MALME-3M melanoma = tested on: MALME-3M melanoma
NCI-H23 lung = tested on: NCI-H23 lung
SF-268 CNS = tested on: SF-268 CNS
SK-MEL-28 melanoma = tested on: SK-MEL-28 melanoma
SNB-75 CNS = tested on: SNB-75 CNS
SW-620 colon = tested on: SW-620 colon
UACC-257 melanoma = tested on: UACC-257 melanoma
NCI/ADR-RES ovarian = tested on: NCI/ADR-RES ovarian

Compound	TGI (A498 renal) [µM]	TGI (K-562 leukemia) [µM]	TGI (MALME-3M melanoma) [µM]	TGI (NCI-H23 lung) [µM]	TGI (SF-268 CNS) [µM]	TGI (SK-MEL-28 melanoma) [µM]	TGI (SNB-75 CNS) [µM]	TGI (SW-620 colon) [µM]	TGI (UACC-257 melanoma) [µM]	GI50 (A498 renal)	GI50 (K-562 leukemia)	GI50 (NCI-H23 lung)	GI50 (NCI/ADR-RES ovarian)	GI50 (SF-268 CNS)	GI50 (SK-MEL-28 melanoma) [µM]	GI50 (SNB-75 CNS)	GI50 (SW-620 colon)	GI50 (UACC-257 melanoma) [µM]	TGI (NCI/ADR-RES ovarian) [µM]	GI50 (MALME-3M melanoma) [µM]
CC1=C(C(=O)Nc2cc(F)c(F)cc2F)C(c2ccc([N+](=O)[O-])cc2)C(C(=O)Nc2cc(F)c(F)cc2F)=C(C)N1	87.1	> 100	> 100	> 100	> 100	> 100	63	> 100	> 100	–	–	–	–	–	–	–	–	–	–	–
CC[C@H](C)[C@H](NC(=O)[C@H]1CCCCN1C)C(=O)N(C)[C@H](C[C@@H](OC(C)=O)c1nc(C(=O)N[C@@H](Cc2ccccc2)C[C@H](C)C(=O)O)cs1)C(C)C	< 0.00165	> 16.5	–	> 16.5	> 16.5	> 16.5	> 16.5	> 16.5	> 16.5	0.000548 µM and < 0.00165 µM	0.000327 µM and 0.00165 µM	0.000887 µM and 0.00165 µM	0.00473 µM and 0.00165 µM	0.000834 µM and 0.00165 µM	8.63	0.000568 µM and 0.00165 µM	0.000332 µM and 0.00165 µM	> 16.5	–	–
CCOc1ccc(NC(=O)CC2C(=O)Nc3ccccc3S2(=O)=O)cc1 (configuration not stated)	> 100	> 100	> 100	> 100	> 100	> 100	43.2	> 100	> 100	–	–	–	–	–	–	–	–	–	–	–
O=C(NNc1ccccc1)/C(=C/c1ccc2c(c1)OCO2)NC(=O)c1ccccc1	> 100	> 100	> 100	> 100	> 100	> 100	> 100	–	> 100	–	–	–	–	–	–	–	–	–	–	–
CC(=O)C1=C(O)C2C3c4c[nH]c5cccc(c45)CC3C(C)(C)N2C1=O (configuration not stated)	98.2	> 100	> 100	64.3	> 100	> 100	–	> 100	> 100	–	–	–	–	–	–	–	–	–	–	–
CCc1nc(N)nc(N)c1-c1ccc(N2CCNCC2)cc1	> 100	> 87.2	–	> 97.3	> 100	> 100	> 100	> 100	> 86	–	–	–	–	–	–	–	–	–	> 100	–
CC(=O)NNc1nc(C)c(C(=O)NNC(=O)C(=O)Nc2ccc(Cl)cc2Cl)s1	–	50.2	> 100	96.4	78.6	> 100	–	50.2	83.4	–	–	–	–	–	–	–	–	–	–	–
COc1cccc(-c2cc(=O)c3ccccc3[nH]2)c1	> 100	> 100	> 100	> 100	> 100	> 100	> 100	> 100	–	–	–	–	–	–	–	–	–	–	–	–
COc1ccc(/C=C/C(=O)c2sc(-n3nc(-c4ccccc4)cc3-c3ccccc3)nc2C)cc1	> 100	> 100	> 100	> 100	> 100	> 100	> 100	> 100	> 100	> 100 µM	–	> 100 µM	–	> 100 µM	> 100	56.1 µM	> 100 µM	–	–	> 100
CC(C)(C)C(C#N)(C#N)c1ccc(C(C#N)(C#N)C(C)(C)C)nn1	–	> 100	> 100	> 100	> 100	> 100	75.2	> 100	> 100	–	–	–	–	–	–	–	–	–	–	–
CN1c2ccccc2N(C(=O)c2ccccc2)C(CC(=O)O)c2cccn21 (configuration not stated)	> 100	> 100	> 100	> 100	> 100	> 100	> 100	> 100	> 100	–	–	–	–	–	–	–	–	–	–	–
C[C@]12CCC3[C@@H](CC[C@@H]4c5nonc5CC[C@]34C)C1CC[C@@H]2O (some centres not stated)	62.7	> 100	69.3	> 100	> 100	70	77.8	> 100	46.9	–	–	–	–	–	–	–	–	–	–	–
COc1ccc(/C(C#N)=C2C=C/C(=N/O)c3ccccc3\2)cc1	6.75	14.3	–	14.4	15	20	11.5	14.4	22.7	2.21 µM	0.105 µM	0.403 µM	0.125 µM	0.481 µM	1.22	0.259 µM	0.262 µM	10.5	2.94	–
c1ccc2c(c1)cc1n2CC2CN=NC12 (configuration not stated)	> 100	> 100	> 100	–	> 100	> 100	> 100	> 100	> 100	–	–	–	–	–	–	–	–	–	–	–
CN(c1ccccc1)c1c(Cl)c(=O)oc2c1ccc1occc12	> 100	> 100	> 100	> 100	–	> 100	> 100	> 100	> 100	–	–	–	–	–	–	–	–	–	–	–
C=CCc1cc(OC)c2c(c1)C(OC)CC(c1ccc(OC)c(OC)c1)O2 (configuration not stated)	> 100	> 100	> 100	–	> 100	> 100	> 100	> 100	> 100	–	–	–	–	–	–	–	–	–	–	–

Compound	TGI (A498 renal) [µM]	TGI (K-562 leukemia) [µM]	TGI (MALME-3M melanoma) [µM]	TGI (NCI-H23 lung) [µM]	TGI (SF-268 CNS) [µM]	TGI (SK-MEL-28 melanoma) [µM]	TGI (SNB-75 CNS) [µM]	TGI (SW-620 colon) [µM]	TGI (UACC-257 melanoma) [µM]	GI50 (A498 renal)	GI50 (K-562 leukemia)	GI50 (NCI-H23 lung)	GI50 (NCI/ADR-RES ovarian)	GI50 (SF-268 CNS)	GI50 (SK-MEL-28 melanoma) [µM]	GI50 (SNB-75 CNS)	GI50 (SW-620 colon)	GI50 (UACC-257 melanoma) [µM]	TGI (NCI/ADR-RES ovarian) [µM]	GI50 (MALME-3M melanoma) [µM]
CC1(C)C(=O)C(C)(C)C1=S	> 100	> 100	> 100	> 100	> 100	> 100	> 100	> 100	> 100	–	–	–	–	–	–	–	–	–	–	–
CCCCCCC[CH2][Sn]1([CH2]CCCCCCC)[O]C(=O)c2cccnc2[O]1	> 100	> 100	> 100	> 100	–	> 100	> 100	> 100	> 100	> 100 µM	> 100 µM	> 100 µM	–	–	> 100	> 100 µM	> 100 µM	> 100	–	> 100
O=C(Nc1nc2c(ncn2C2OC(CO)C(O)C2O)c(=O)[nH]1)c1ccccc1 (configuration not stated)	> 100	> 100	> 100	> 100	> 100	> 100	> 100	> 100	> 100	–	–	–	–	–	–	–	–	–	–	–
CCSc1c2ccccc2c(-c2nc(F)nc(F)n2)n1CCc1ccccc1	> 100	> 100	> 100	> 100	> 100	> 100	–	> 100	–	–	–	–	–	–	–	–	–	–	–	–
COc1cc(CCc2ccc(N)cc2)cc(OC)c1OC	> 100	> 100	> 80	> 100	> 100	92.8	> 100	> 100	> 100	–	–	–	–	–	–	–	–	–	–	–
Cn1nc(-c2ccccc2)c2c(/C=C/c3ccccc3)onc2c1=O	> 100	> 100	> 100	> 100	> 100	> 100	64.5	–	> 100	–	–	–	–	–	–	–	–	–	–	–
CC(SC(=O)Nc1ccc(N=Nc2ccccc2)cc1)C(=O)O (configuration not stated)	> 100	> 100	–	> 100	48.9	> 100	46.4	> 100	> 100	–	–	–	–	–	–	–	–	–	–	–
COC(=O)C=Cc1ccc2nncnc2c1 (mixture of isomers)	> 100	> 100	–	–	> 100	> 100	55.1	> 100	36.3	–	–	–	–	–	–	–	–	–	> 100	–
Brc1ccc2ns[s+]c2c1	> 100	> 100	> 86	> 100	> 100	> 100	> 100	> 100	> 100	–	–	–	–	–	–	–	–	–	–	–
CN(C)CCNC(=O)c1cccc2c1Oc1c(cccc1[N+](=O)[O-])O2	4.78	7.55	3.88	9.58	12.2	7.87	3.96	10.2	6.34	–	–	–	–	–	–	–	–	–	–	–
N#C/C(=C/NC(=S)c1ccncc1)C(N)=O	> 100	–	–	> 100	> 100	> 100	> 100	> 100	> 100	–	–	–	–	–	–	–	–	–	> 100	–
Cc1ccc(NC(=O)C(=O)CC(=O)c2sc(Nc3c(C)cccc3C)nc2C)cc1C	–	> 100	–	> 100	> 100	> 100	–	> 100	> 100	–	–	–	–	–	–	–	–	–	> 100	–
CC(=O)O[C@H]1CC[C@@]2(C)C(=CC[C@@H]3C2CC[C@]2(C)Nc4nc5ccccc5cc4CC32)C1 (some centres not stated)	18.9	11.6	21.7	26.6	14.9	–	8.68	7.2	13	–	–	–	–	–	–	–	–	–	–	–
Nc1c(Cl)ncnc1NCCCNc1ncnc(Cl)c1N	> 100	> 100	–	> 100	> 100	> 100	–	> 100	> 100	–	–	–	–	–	–	–	–	–	–	–
N=c1c2c(=N)n3c(nc2nc2n1-c1ccccc1Sc1ccccc1-2)sc1cc(Cl)ccc13	6.33	> 100	–	7.02	> 100	13.6	65.4	71.1	54.8	1.79 µM	1.62 µM	1.15 µM	1.84 µM	3.42 µM	2.65	1.83 µM	3.14 µM	2.59	44.6	–
NC(=O)NC1C(C(N)=O)N(Cc2ccccc2)C(=O)N1Cc1ccccc1 (configuration not stated)	–	> 100	> 100	> 100	> 100	> 100	> 100	> 100	> 100	–	–	–	–	–	–	–	–	–	–	–
